Assay results from patent US10689415B2, “Conjugates of RGD peptides and (bacterio)chlorophyll photosensitizers” (YEDA RESEARCH AND DEVELOPMENT COMPANY LTD., priority 2006, dated 2020).

Legend:
CT26luc colon cancer = test: In vivo PDT (VTP) of CT26luc colon cancer; parameters: species or system CD-1 nude male mice; conditions: i.v. injected and illuminated after 8 hours
Protocol: CD-1 nude male mice bearing the different tumor xenografts were anesthetized and 24 (5-24 mg/kg body weight) or 8 (9 mg/kg body weight) were i.v. injected via the tail vein. The tumors were trans-cutaneously illuminated after 3.5, 6, 8, 12 and 24 hours for 5-30 min at light doses of 30-360 J/cm^2. Intensity of illumination: 100-200 mW/cm^2. After treatment, the mice were returned to the cage. The mice were considered cured if tumor free for 90 days after treatment. Mice were euthanized when the tumor diameter reached 15 mm. […] (5) Mixture of 8 and cycloRGDfK: the mice were i.v. injected with mixture of 8 with cycloRGDfK and illuminated after indicated time point. (6) cycloRGDfK alone: the mice were i.v. injected with cycloRGDfK and illuminated after indicated time point. Images were taken at indicated time post PDT.
FIGS. 32A-32F show the therapeutic results of applying 15 mg/kg, 10 min illumination (60 J/cm^2), 8 hours post injection of conjugate 24 to mice bearing CT26luc tumors (bolded protocol in Table 5). 32A—conjugate 24 was i.v. injected 15 mg/kg, 10 min illumination (60 J/cm^2) 8 hours post injection; 32B—overlaid images taken after i.p. injection of luciferin to the mouse described in 32A, using the IVIS system. The first image is black and white, which gives the photograph of the animal. The second image is color overlay of the emitted photon data. […]

[1] = Solubilization for in vitro experiments (water solubility); format: physicochemical
Protocol: Compound 24 was dissolved in 100% DMSO before use and diluted in saline to a final DMSO concentration of 5% v/v.

H5V endothelial cells = test: Phototoxicity assay (Neutral Red cell viability after illumination); format: cell-based, mouse
Protocol: The light source for in vitro studies was home-built 100-W halogen lamp equipped with a high-pass filter (>650 nm, Safelight filter 1A Eastman Kodak Co., Rochester, N.Y., USA) and a 4-cm water filter. The lamp was used to illuminate (20 mW/cm^2/10 min (12 J/cm^2)) the culture plates from the bottom at room temperature in a dark room.
To determine the pigment photodynamic efficacy in vitro under standard conditions, cells were cultured in 96-well plates and preincubated for 15 or 90 min at 37° C. or 4° C., according to the indicated experiment protocol, with 0-25 μM conjugated or non-conjugated photosensitizer in different media conditions (culture medium DMEM/F12; 10% FCS in medium or 10 μM BSA in medium) in the absence or presence of excess free peptide (100 fold up to 1 mM). The cells were washed and illuminated (20 mW/cm^2 for 10 min). Plates were placed back in the culture incubator for 24 h. Cell survival was determined using Neutral Red cell viability assay. Cell survival was calculated as the percent of the dye accumulated in the untreated controls. […] Three kinds of controls were used: (i) light control: cells illuminated in the absence of pigments; (ii) dark control: cells treated with pigments but kept in the dark; and (iii) untreated cells that were kept in the dark.
Following photosensitization and a 24-h incubation period (37° C.), cell survival was determined by Neutral Red (Fluka Chemie, Buchs, Switzerland) accumulation. After subtraction of assay blanks, net optical density (570 nm) was computed as the average value of triplicates determinations. Cell survival was calculated as the percent of the dye accumulated in the untreated controls.
H5V cells were incubated for 90 min at 37° C. with 0-25 μM of conjugate 23 or compound 10 in different media conditions, illuminated and their survival was determined using Neutral Red viability assay as described in Materials and Methods.
Targeted phototoxicity is defined as one inhibited by the free ligand. Thus, further experiments attempted to block phototoxicity by administration of the free cycloRGDfK, which competes for the cellular binding of conjugate 23. H5V cells were incubated for 90 min at 37° C. with 0-25 μM of compound 10 or conjugate 23 in different media (10% FCS in medium or 10 μM BSA in medium) in the absence or presence of free excess cycloRGDfK (100-fold up to 1 mM). The cells were illuminated and cell survival was determined using Neutral Red viability assay, as described above.
In order to test the endocytosis theory and since the endocytic process is time- and temperature-dependent, H5V cells were incubated at 37° C. and 4° C. for 15 min with 0-20 μM of conjugate 23 in medium containing 10% FCS, in the presence or absence of excess cycloRGDfK (100-fold up to 1 mM). Cells were illuminated and their survival was determined as described above.
The phototoxicity of conjugate 24 was determined by monitoring the survival of cultured H5V endothelial cells following PDT. H5V cells were incubated for 2 hours at 37° C. with 0-25 μM conjugate 24 in culture medium DMEM/F12 with 10% FCS. The cells were illuminated and their survival was determined as described above.
Cells were incubated for 90 min at 37° C. in the presence of 0-20 μM conjugate 11 or compound 8 in 10 μM BSA in medium, illuminated and their survival was determined as described above.

[2] = test system: human mammary cancer MDA-MB-231-RFP xenografts; test: In vivo PDT of MDA-MB-231-RFP xenografts; parameters: species or system CD-1 nude male mice; conditions: 7.5 mg/kg i.v.
Protocol: For the PDT experiments, MDA-MB-231 RFP cells (4×10^6) were implanted subcutaneously on the backs of the mice and tumors developed to the treatment size (6-8 mm) within 2-3 weeks.
The tumors were illuminated for 10 min. The drug light interval used was 8 hr post drug injection. Transdermal illumination through the mouse skin with 755 nm diode laser at 100 mW/cm^2 (CeramOptec, Germany) was used. After the treatment, the mice were returned to the cage. […] In the light control group, the mice were illuminated for 10 min with 100 mW/cm^2. During the first 2 days post PDT, as needed, the mice received analgesia (2.5 mg/kg Flunexin daily) and 3 days Oxycode in the drinking water. The end point of animal survival is when the size of the tumor reaches 10% of animal weight. Mice are sacrificed at this time (up to 90 days) by cervical dislocation.
FIGS. 35A-35B show two representative examples to local response of human MDA-MB-231-RFP to PDT. […] 35A—Photographs taken from day 0 (before treatment) and after treatment at 1, 4, 7, 12 and 90 days. […] 35B—In vivo whole-body red fluorescence imaging of CD-1 nude male mice bearing MDA-MB-231-RFP orthotopic tumor.

[3] = test system: orthotopic human breast MDA-MB-231-RFP primary tumor; test: Whole-body NIR fluorescence imaging of accumulation in orthotopic MDA-MB-231-RFP tumor; format: in vivo, CD-1 nude female mice; conditions: for accumulation in the tumor (NIR fluorescence): 15 mg/kg i.v.
Protocol: RFP fluorescence, in units of photons/sec, was detected using 525/50 nm and 612/75 nm filter sets for excitation and emission, respectively, with one second integration time. NIR fluorescence of the different photosensitizers, in units of photons/sec, was detected using 680/30 nm and 847/75 nm filter sets for excitation and emission, respectively, at an integration time of five seconds. Background fluorescence for all quantitative analyses was calculated by recording the average fluorescence (photons/sec)/cm^2 from three animals in three different areas around and within the tumor of untreated animals provided with a similar diet for three days before measurements. Drug accumulation was determined following i.v. administration of molar equivalents of the photosensitizer to the tail vein of mice fed with a chlorophyll-free, purified diet for three days before administration (in order to reduce skin and food autofluorescence). Before imaging, mice were anesthetized by intraperitoneum injection of a 30 μl mixture of 85:15 ketamine:xylazine.
In order to study the accumulation of the photosensitizer in primary mammary tumors, the MDA-MB-231-RFP cells (4×10^6) were implanted orthotopicaly in the mammary pad of the mice. Tumors developed to the wanted size, bigger than 1 cm^3, within 3-4 weeks.
Tumor imaging main filter set comprised: excitation filter 500-550 nm, emission filter 575-650 nm; Background filter set for subtraction the tissue auto fluorescence: excitation filter 460-490 nm, emission filter 575-650 nm. Photosensitizer imaging main filter set: excitation filter 665-695 nm, emission filter 810-875 nm.
Images were taken at these time points post drug injection: 15 min, 1, 2, 3, 4.5, 6, 7.5, 9, 24 hr, 2, 3, 4, 5, 6, 7 days.

[4] = test system: large MDA-MB-231-RFP tumors; test: Biodistribution and pharmacokinetics (fluorescence of tissue extracts) in MDA-MB-231-RFP tumor-bearing mice; format: in vivo, CD-1 nude female mice
Protocol: Mammary fat pads (left, bottom nipple) of female mice were inoculated with harvested MDA-MB-231-RFP human breast cancer cells (4×10^6 in […] saline). Tumors were classified as ‘small’ (˜100 mm^3) at one to two weeks from time of cell injection, or ‘large’ after three to four weeks (necrotic tumors, 250 to 500 mm^3). To avoid tumor burden, mice were sacrificed (cervical dislocation) when tumor size reached 10% of body weight or at 90 days post-implantation. External caliper measurements, length (L), width (W) and depth (D) were used to calculate in vivo tumor volume according to the formula: V=L/2·W/2·D/2·π·4/3.
Anesthetized mice were i.v. injected (tail vein) with the different photosensitizer (pigment) conjugates (control group: untreated). The mice were sacrificed at indicated time points and samples of the indicated organs and tissues (blood, tumor, intestine, liver, spleen, kidneys, testies, heart, lung, brain, skin, muscle and fat) were placed in pre-weighted vials and immediately frozen and stored at −20° in the dark until analyzed. Three methods were used for sample preparation: (1) Each sample was thawed and homogenized in DDW (1:10 w/v). Aliquots of the homogenate (500 μl) were lyophilized in Eppendorf test tubes. Then, 60 μl of HNO3 (70%, TraceSelect, Fluka) were added to each dry sample, incubated for 1 h at 90° C. and diluted with DDW to 3 ml. (2) Each sample was diluted (1:2 w/v) in HNO3 (70%, TraceSelect, Fluka). The samples were sonicated for 30 min in boiled water, and left for at least 48 h at room temperature. (3) Applied for assessment of non-metalated conjugates. Each sample was thawed and homogenized in methanol (100 mg tissue/ml) and extracted the next morning by centrifugation (13,000×g, five minutes) at room temperature. In methods (1) and (2), 140 μl from each sample was added to 3.36 ml DDW to give total volume of 3.5 ml and incubated for 1 h at 90° C. Pd concentrations were determined by ICP-MS. According to method (3), the supernatants were diluted in methanol by a factor of two and the drug concentration was determined by fluorescence measurements (Varian-Cary Eclipse spectrofluorimeter, Palo Alto, Calif., USA) at 750 nm (peak values). Drug concentrations were interpolated from a fluorescence calibration curve, based on predetermined drug concentrations using absorption spectroscopy.

MDA-MB-231 breast tumor = test: Biodistribution (Cu by ICP-MS) in mice bearing MDA-MB-231 breast tumor; format: in vivo, female CD-1 nude mice
Protocol: The biodistribution of Cu-conjugate 15 was determined in female CD-1 nude mice of 6-8 weeks-old, weighing 20-23 g and bearing 6-9-mm^3 tumors of human adenocarcinoma cells obtained from breast tissue (MDA-MB-231 cells). The conjugate (30 mg/ml in 5% DMSO/PBS) was injected to the tail vein, and the animals were sacrificed in selected time points. Cu concentrations were determined by ICP-MS as described in Material and Methods.

MLS ovarian carcinoma = test: Fluorescence imaging, MLS ovarian carcinoma; format: in vivo, mice; conditions: 8 mg/kg i.v.
Protocol: Conjugate 26 (8 mg/kg) was i.v. injected into animals bearing MLS ovarian carcinoma. Images on IVIS were taken after 8 and 14 hours.

Q: Which results are given for `N=C(N)NCCC[C@@H]1NC(=O)[C@H](CCCCN)NC(=O)[C@@H](Cc2ccccc2)NC(=O)[C@H](CC(=O)O)NC(=O)CNC1=O` [cycloRGDfK]?
A: PDT effect of controls (CT26luc colon cancer): no PDT effect; water solubility [1]: Water insoluble

Q: What does the source list for “Palladium 3-oxo-15-methoxycarbonylmethyl-Rhodobacteriochlorin-13^1-(2,3-dihydroxypropyl)amide potassium salt [Compound 10]”?
A: LD50 (H5V endothelial cells; 10 μM BSA in medium (90 min, 37° C.)): 3.5 to 5 µM; LD50 (H5V endothelial cells; 10 μM BSA in medium (90 min, 37° C.), with free peptide in excess (cycloRGDfK)): 5 µM; LD50 (H5V endothelial cells; 10% FCS (90 min, 37° C.)): 5 to 7 µM; LD50 (H5V endothelial cells; 10% FCS (90 min, 37° C.), with free peptide in excess (cycloRGDfK)): 5 µM; influence of excess cycloRGDfK on phototoxic effects (H5V endothelial cells; 90 min, 37° C., 100-fold up to 1 mM): not influenced by the presence of excess cycloRGDfK; LD50 (H5V endothelial cells; culture medium (90 min, 37° C.)): 7 µM; phototoxic effects (H5V endothelial cells; different media, 90 min, 37° C., 0-25 μM): light- and drug concentration-dependent; water solubility [1]: Water insoluble

Q: What does the source list for “3^1-oxo-15-methoxycarbonylmethyl-Rhodobacteriochlorin 13^1-(2-sulfoethyl)amide-17^3-(cycloRGDfK)amide potassium salt [Conjugate 13]”?
A: whole-body red fluorescence (tumor) signal after PDT ([2]; 90 days after treatment): No signal was detected 90 days after treatment; local tumor response to PDT ([2]; illuminated 8 h later, 755 nm, 100 mW/cm^2, 10 min): after 90 days the wound healed and the animal was cured; accumulation in the tumor (NIR fluorescence) ([3]; 15 min to 24 hr post injection, tumor size ~1 cm^3, potassium salt): no specific accumulation in the tumor during the first 24 hours; accumulation in the tumor (NIR fluorescence) ([3]; day 1 to 6 post injection): reaching peak concentration specifically in the tumor from day 2 post injection; peak concentration in the tumors ([4]; 15 mg/kg i.v.): 11 μg drug/gr tumor tissue; peak tumor level as share of the initial drug dose ([4]; 15 mg/kg i.v.): about 3.0%; time of peak concentrations in the tumors ([4]; 15 mg/kg i.v.): eight hours post-injection; time to clear to nearly background levels in normal tissues ([4]; 15 mg/kg i.v.): less than 72 hours; time of peak levels in the normal tissues examined ([4]; 15 mg/kg i.v., blood, liver, kidney): less than five minutes post-injection

Q: Which results are given for “Copper(II) 3^1-oxo-15-methoxycarbonylmethyl-Rhodobacteriochlorin 13^1-(2-sulfoethyl)amide-17^3-(cycloRGDfK)amide potassium salt [Conjugate 15]”?
A: tumor intensity in comparison with surrounding normal tissue (MDA-MB-231 breast tumor; at peak): about 3 fold; time of peak accumulation in tumor after injection (MDA-MB-231 breast tumor; i.v. tail vein): 8 to 12 h

Q: For “3^1-oxo-15-methoxycarbonylmethyl-Rhodobacteriochlorin 13^1-(2-sulfoethyl)amide potassium salt [Compound 25, reference compound]”, which specific tumor fluorescence ([3]; 9 mg/kg i.v., large necrotic tumors, one hour post injection) is on record?
A: Its specific tumor fluorescence is “No specific tumor fluorescence”.

Q: What about the “accumulation in the tumor (tissue extracts)” value ([4]; 9 mg/kg i.v.) of the same compound?
A: Its value is “no accumulation of 25 in the tumor at any time longer than one hour post administration”.

Q: What does the source list for “3^1-oxo-15-methoxycarbonylmethyl-Rhodobacteriochlorin 13^1-(2-sulfoethyl)amide-17^3-(GRGDSP)amide potassium salt [Conjugate 26]”?
A: accumulation (fluorescence) (MLS ovarian carcinoma; 8 hours): did not present accumulation; accumulation (fluorescence) (MLS ovarian carcinoma; 14 hours): a high level of fluorescence was observed in tumor and liver areas
